The assay concerns cultured human mast cells (CHMC). Nature of the assay: CHMC low cell density IgE activation: tryptase assay. The format is cell-based. To be noted: IgE activation. The procedure, abridged:
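Tryptase release, fluorogenic substrate, 30 min RT. Prior anti-IgE stimulation of CHMC, 30 min, 37 °C, after 1 hr preincubation at 1000–1500 cells/well in MT; unstimulated wells received MT.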

[1] abbreviates: low cell density, 8 pt, read-out: LD Tryptase, CHMC, IgE, 8 pt.
Where [2] appears, read: low cell density CHMC, tryptase readout, 8 pt, read-out: LD Tryptase, CHMC, IgE, 8 pt.
[3] abbreviates: Homo sapiens, Mast cell, low cell density CHMC, tryptase, 3 pt, read-out: LD Tryptase, CHMC, IgE, 3 pt.
Setting [4] is: Homo sapiens, Mast cell, low cell density CHMC, tryptase, 8 pt, read-out: LD Tryptase, CHMC, IgE, 8 pt.
The mark [5] stands for this setting: low cell density CHMC, tryptase release, 8 pt, read-out: LD Tryptase, CHMC, IgE, 8 pt.
Where [6] appears, read: Homo sapiens, Mast cell, low cell density CHMC, tryptase release, 8 pt, read-out: LD Tryptase, CHMC, IgE, 8 pt.
[7] abbreviates: low cell density CHMC, tryptase, 3 pt, read-out: LD Tryptase, CHMC, IgE, 3 pt.
[8] abbreviates: low cell density, 3 pt, read-out: LD Tryptase, CHMC, IgE, 3 pt.
The mark [9] stands for this setting: Homo sapiens, Mast cell, low cell density, 3 pt, read-out: LD Tryptase, CHMC, IgE, 3 pt.
The mark [10] stands for this setting: low cell density CHMC, tryptase, 8 pt, read-out: LD Tryptase, CHMC, IgE, 8 pt.

pIC50: −log10 of the molar value. Like-named read-outs stand apart in the source and are kept apart here.

On to “(S)-5-Fluoro-[1- (2-hydroxymethyl)-2-trifluoromethylbenzimidazol-5-yl]-N4- (2-methyl-3-oxo-2H,4H-benz[1,4]oxazin-6-yl)-2,4-pyrimidinediamine [Compound 923]”, for which the pIC50 under setting [1] is over 5.00.

With `COc1cc(Nc2ncc(F)c(Nc3ccc4c(c3)OC(F)(F)O4)n2)cc(C(F)(F)F)c1` [Compound 568], the pIC50 (low cell density CHMC, tryptase release, 3 point, read-out: LD Tryptase, CHMC, IgE, 3 pt) is under 5.00.

With `CCOC(=O)N1CCN(c2cccc(Nc3ncc(F)c(Nc4ccc5c(n4)NC(=O)CO5)n3)c2)CC1` [Compound 1070, N2-[3-(4-Ethoxycarbonylpiperazino)phenyl]-5-fluoro-N4-(3-oxo-2H,4H-5-pyrid[1,4]oxazin-6-yl)-2,4-pyrimidinediamine], the pIC50 under setting [2] is over 5.00.

Take `COc1ccc(Nc2nc(Nc3ccc4c(C)nn(C)c4c3)ncc2F)cc1Cl` [Compound 752, N4-(3-Chloro-4-methoxyphenyl)-N2-(1,3-dimethylindazol-6-yl)-5-fluoro-2,4-pyrimidinediamine]: the pIC50 is, setting by setting: under setting [3], over 5.00; under setting [4], over 5.00.

Regarding `Cc1cc(Nc2ncc(F)c(NC3CC(C)(C)N(C)C(C)(C)C3)n2)cnc1N1CCN(C)CC1` [Compound 1244], the pIC50 under setting [3] was under 5.00.

Regarding `CNC(=O)COc1cccc(Nc2ncc(F)c(Nc3ccc4c(c3)NC(=O)CS4(=O)=O)n2)c1` [Compound 305, 5-Fluoro-N2-[3-(N-methylamino)carbonylmethyleneoxyphenyl]-N4-(1,1,3-trioxo-2H,4H-benzo[1,4]thiazin-6-yl)-2,4-pyrimidinediamine], the pIC50 under setting [5] was over 5.00.

As for `Cc1cc(Nc2ncc(F)c(NC3CCC3)n2)cnc1N1CCN(C)CC1` [Compound 1239], the pIC50 under setting [3] is under 5.00.

On to `CC(C)(C)C(=O)NCCCn1ncc2cc(Nc3ncc(F)c(Nc4ccc(Cl)c(Cl)c4)n3)ccc21` [Compound 849, N4-(3,4-Dichlorophenyl)-5-fluoro-N2-[1-(3-pivalamidopropyl)indazol-5-yl]-2,4-pyrimidinediamine], for which the pIC50 under setting [6] is over 5.00.

For `Cc1cc(C)cc(Nc2ncc(F)c(Nc3ccc4c(n3)NC(=O)[C@H](C)O4)n2)c1` [Compound 1084, (S)-N2-(3,5-Dimethylphenyl)-5-fluoro-N4-(2-methyl-3-oxo-2H,4H-5-pyrid[1,4]oxazin-6-yl)-2,4-pyrimidinediamine], the pIC50 is, setting by setting: (low cell density CHMC, tryptase readout, 3 pt, read-out: LD Tryptase, CHMC, IgE, 3 pt) under 5.00; under setting [2], over 5.00.

In the case of `CC1(C)Oc2ccc(Nc3nc(Nc4ccc5cnn(C6CCCCC6)c5c4)ncc3F)cc2NC1=O` [Compound 748, N2-(1-Cyclohexylindazol-6-yl)-N4-(2,2-dimethyl-3-oxo-4H-benz[1,4]oxazin-6-yl)-5-fluoro-2,4-pyrimidinediamine], the pIC50 under setting [4] is over 5.00.

With `CCN1CCN(c2ccc(Nc3ncc(F)c(NC4CCCCC4)n3)cn2)CC1` [Compound 1232], under setting [3], the pIC50 was over 5.00.

With `CN1CCN(c2ccc(Nc3ncc(F)c(NC4CCCCC4)n3)cc2C(F)(F)F)CC1` [Compound 1209], the pIC50 under setting [3] is over 5.00.

As for `CN1CCN(c2ccc(Nc3ncc(F)c(Nc4cc(C5CC5)n[nH]4)n3)cc2C(F)(F)F)CC1` [Compound 1211], the pIC50 under setting [7] is over 5.00.

As to `Cc1cc(Nc2ncc(F)c(Nc3ccc4c(c3)OCO4)n2)cc(C(F)(F)F)c1` [Compound 374], under setting [3], the pIC50 is under 5.00.

With `C[C@@H]1Oc2ccc(Nc3nc(Nc4ccc5c(cnn5CCCN5C(=O)c6ccccc6C5=O)c4)ncc3F)cc2NC1=O` [Compound 818, (S)-5-Fluoro-N4-(2-methyl-3-oxo-2H,4H-benz[1,4]oxazin-6-yl)-N2-[1-[3-(N-phthalimidopropyl)]indazol-5-yl]-2,4-pyrimidinediamine], the pIC50 under setting [5] was over 5.00.

`C[C@@H]1Oc2ccc(Nc3nc(Nc4ccc5c(c4)nc(CN4CCOCC4)n5C)ncc3F)cc2NC1=O` [Compound 957, (S)-5-Fluoro-N2-[1-methyl-2-(4-morpholinomethyl)benzimidazol-5-yl]-N4-(2-methyl-3-oxo-2H,4H-benz[1,4]oxazin-6-yl)- -2,4-pyrimidinediamine]: the pIC50 under setting [8] was over 5.00 and the pIC50 under setting [1] is over 5.00.

With `COc1cc(N(C)c2nc(Cl)ncc2F)cc(OC)c1OC` [Compound 523], under setting [9], the pIC50 is under 5.00.

Turning to `COc1ccc(Nc2nc(Nc3ccc4cnn(C(C)C)c4c3)ncc2F)cc1Cl` [Compound 783, N4-(3-Chloro-4-methoxyphenyl)-5-fluoro-N2-[1-(1-methylethyl)indazol-6-yl]-2,4-pyrimidinediamine], under setting [6], the pIC50 was over 5.00.

As for “(R)-N2- (3-Chloro-4-methoxyphenyl)-5-fluoro-N4- (2-methyl-3-oxo-2H,4H-benz[1,4]oxazin-6-yl)-2,4-pyrimidinediamine (1R)-(−)-Camphorsulfonic Acid Salt [Compound 212]”, the pIC50 (low cell density CHMC, tryptase release, 3 pt, read-out: LD Tryptase, CHMC, IgE, 3 pt) was over 5.00 and the pIC50 under setting [5] is over 5.00.

`NC1CCOc2ccc(Nc3nc(Nc4ccc(-c5cnco5)cc4)ncc3F)cc21` (racemic) [Compound 1293, (R,S)-N4-[4-Amino-3,4-dihydro-2H-1-benzopyran-6-yl]-5-fluoro-N2-[4-(oxazol-5-yl)phenyl]-2,4-pyrimidinediamine]: the pIC50 under setting [10] was over 5.00.

In the case of `COC(=O)C(C)(C)Oc1ccc(Nc2nc(Nc3cc(C)cc(C)c3)ncc2F)cc1` [Compound 403, N2-(3,5-Dimethylphenyl)-N4-[4-(methoxycarbonyl-1,1-dimethylmethyleneoxy)phenyl]-5-fluoro-2,4-pyrimidinediamine], under setting [10], the pIC50 was over 5.00.

For `CC1(C)Oc2ccc(Nc3nc(Nc4ccc5cnn(CC6CCC6)c5c4)ncc3F)cc2NC1=O` [Compound 732, N2-[1-(Cyclobutylmethyl)indazol-6-yl]-N4-(2,2-dimethyl-3-oxo-4H-benz[1,4]oxazin-6-yl)-5-fluoro-2,4-pyrimidinediamine], under setting [4], the pIC50 was over 5.00.

With `COc1cc(Cl)cc(Nc2ncc(F)c(Nc3ccc4c(c3)OCCO4)n2)c1` [Compound 370], the pIC50 under setting [4] was over 5.00.

Regarding `CNC(=O)Cn1ccc2cc(Nc3ncc(F)c(Nc4ccc(OC)c(Cl)c4)n3)ccc21` [Compound 654, N4-(3-Chloro-4-methoxyphenyl)-5-fluoro-N2-[1-(N-methylamino)carbonylmethyleneindol-5-yl]-2,4-pyrimidinediamine], the pIC50 (low cell density CHMC, tryptase release, 8 point, read-out: LD Tryptase, CHMC, IgE, 8 pt) is over 5.00.

Regarding `CC(C)(C)c1nnc(-c2cccc(Nc3ncc(F)c(Nc4ccc5c(c4)OCCO5)n3)c2)o1` [Compound 531, N2-[ (2-tert-Butyl-1,3,4-oxadiazol-5-yl)phenyl]-N4-(3,4-ethylenedioxyphenyl)-5-fluoro-2,4-pyrimidinediamine], the pIC50 under setting [8] was over 5.00.

As for `CC1(C)Oc2ccc(Nc3nc(Nc4ccc5[nH]c(N6CCOCC6)nc5c4)ncc3F)nc2NC1=O` [Compound 977, N4-(2,2-Dimethyl-3-oxo-4H-5-pyrido[1,4]oxazin-6-yl)-5-fluoro-N2-[2-(4-morpholino)-1H-benzimidazol-5-yl]-2,4-pyrimidinediamine], the pIC50 (Homo sapiens, Mast cell, low cell density, 8 pt, read-out: LD Tryptase, CHMC, IgE, 8 pt) was over 5.00.

On to `COc1cc(Nc2ncc(F)c(Nc3ccc(OC)c(N)n3)n2)cc(OC)c1` [Compound 544], for which, under setting [9], the pIC50 is over 5.00.

On to “N2- (4-Aminocarbonylphenyl)-5-fluoro-N4- (4-[N-[methoxycarbonylmethylene]aminocarbonyl]phenyl)-2,4-pyrimidinediamine [Compound 1333]”, for which the pIC50 is, setting by setting: under setting [7], under 5.00; under setting [10], under 5.00.

As for `CCN1CCN(c2ccc(Nc3ncc(F)c(NC(C)(C)C)n3)cn2)CC1` [Compound 1236], the pIC50 under setting [3] was under 5.00.

Take `CC1(C)C(=O)Nc2cc(Nc3nc(Nc4ccc5[nH]ncc5c4)ncc3F)ccc2S1(=O)=O` [Compound 274]: the pIC50 under setting [6] was over 5.00.

(Values after patent US20220073536A1 (Rigel Pharmaceuticals, Inc., priority 2003, published 2022).)
